# Molecular target: ATP-binding cassette sub-family C member 2 (Homo sapiens, UniProt Q92887)
# Experiment: TP_TRANSPORTER: uptake in membrane vesicle from MRP2-expressing HEK293T cells
# Type: functional, cell membranes
# Conditions: hek293
# Sequence of ATP-binding cassette sub-family C member 2 (Q92887 whole entry): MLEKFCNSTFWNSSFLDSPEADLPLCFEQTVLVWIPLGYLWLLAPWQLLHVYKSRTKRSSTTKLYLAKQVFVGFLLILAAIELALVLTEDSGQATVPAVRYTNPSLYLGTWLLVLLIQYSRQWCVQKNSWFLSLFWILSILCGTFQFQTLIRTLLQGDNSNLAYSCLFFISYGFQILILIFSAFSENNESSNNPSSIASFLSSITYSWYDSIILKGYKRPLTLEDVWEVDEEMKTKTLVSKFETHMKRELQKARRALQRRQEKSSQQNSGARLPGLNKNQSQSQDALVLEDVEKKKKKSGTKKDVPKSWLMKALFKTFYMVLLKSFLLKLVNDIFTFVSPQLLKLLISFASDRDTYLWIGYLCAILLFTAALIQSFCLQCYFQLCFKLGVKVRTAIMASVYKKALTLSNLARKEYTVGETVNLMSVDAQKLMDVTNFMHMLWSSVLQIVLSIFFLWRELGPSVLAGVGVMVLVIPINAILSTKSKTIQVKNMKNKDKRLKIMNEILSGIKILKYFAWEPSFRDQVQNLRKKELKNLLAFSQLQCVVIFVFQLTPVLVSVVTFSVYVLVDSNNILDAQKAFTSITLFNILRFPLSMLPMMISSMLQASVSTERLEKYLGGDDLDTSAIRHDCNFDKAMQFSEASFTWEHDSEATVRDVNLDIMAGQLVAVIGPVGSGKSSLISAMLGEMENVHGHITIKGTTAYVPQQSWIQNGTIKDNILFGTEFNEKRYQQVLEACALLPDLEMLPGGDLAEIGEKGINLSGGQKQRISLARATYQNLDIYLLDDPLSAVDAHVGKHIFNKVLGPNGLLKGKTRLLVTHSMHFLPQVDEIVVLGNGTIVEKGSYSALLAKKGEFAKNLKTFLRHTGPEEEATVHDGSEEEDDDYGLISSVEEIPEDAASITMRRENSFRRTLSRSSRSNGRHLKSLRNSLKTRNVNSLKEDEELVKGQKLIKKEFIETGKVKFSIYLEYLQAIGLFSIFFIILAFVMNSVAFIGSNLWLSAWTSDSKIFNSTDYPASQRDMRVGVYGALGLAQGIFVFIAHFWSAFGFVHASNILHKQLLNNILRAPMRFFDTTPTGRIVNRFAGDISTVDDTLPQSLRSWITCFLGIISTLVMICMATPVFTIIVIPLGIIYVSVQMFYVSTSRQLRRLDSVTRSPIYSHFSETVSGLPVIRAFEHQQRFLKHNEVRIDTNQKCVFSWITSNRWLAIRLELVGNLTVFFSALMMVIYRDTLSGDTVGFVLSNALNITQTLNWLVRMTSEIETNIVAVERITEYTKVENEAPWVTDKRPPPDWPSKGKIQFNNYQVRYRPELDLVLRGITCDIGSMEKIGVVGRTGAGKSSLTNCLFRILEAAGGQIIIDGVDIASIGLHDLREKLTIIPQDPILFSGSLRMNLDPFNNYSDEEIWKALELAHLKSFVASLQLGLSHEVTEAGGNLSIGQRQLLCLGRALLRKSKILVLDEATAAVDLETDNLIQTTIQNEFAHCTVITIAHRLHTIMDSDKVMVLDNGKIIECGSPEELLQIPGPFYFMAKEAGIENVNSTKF
smiles,measurement,value
CN(CCCC(C[C@@H]1O[C@H](C(=O)O)[C@@H](O)[C@H](O)[C@H]1O)c1cccnc1)N=O (stereo partly specified),Activity,substrate [+]

# Reference: ChEMBL document CHEMBL2073804, “Transport of the beta -O-glucuronide conjugate of the tobacco-specific carcinogen 4-(methylnitrosamino)-1-(3-pyridyl)-1-butanol (NNAL) by the multidrug resistance protein 1 (MRP1). Requirement for glutathione or a non-sulfur-containing analog” (J Biol Chem, 2001)
